From the supplement of paper PMC10307832

Assays:
Test in all cases: relative viability (nuclei count vs DMSO), 5 days (fraction); higher = more cells survive
Cediranib + Dasatinib = compound: COc1cc2c(Oc3ccc4[nH]c(C)cc4c3F)ncnc2cc1OCCCN1CCCC1 [Cediranib] + Cc1nc(Nc2ncc(C(=O)Nc3c(C)cccc3Cl)s2)cc(N2CCN(CCO)CC2)n1 [Dasatinib] (partner 0.075 µM)
Outline: (§1)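 Lung cancer cell lines, seeded in 1536-well plates, were treated the following day by pin tool with a single drug or with five library-drug doses (not always all listed) in √10 steps on top of a fixed anchor-drug dose. Cells were fixed and nuclei stained in one step after 5 days, and nuclei were counted. Relative viability is the nuclei count for treated wells divided by that for vehicle wells, reported as medians of duplicate plates.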

Cediranib + Bortezomib = compound: COc1cc2c(Oc3ccc4[nH]c(C)cc4c3F)ncnc2cc1OCCCN1CCCC1 [Cediranib] + CC(C)C[C@H](NC(=O)[C@H](Cc1ccccc1)NC(=O)c1cnccn1)B(O)O [Bortezomib] (partner 0.002 µM)
Outline: as §1

[1] = compound: O=C(C[C@H]1NCCC[C@@H]1O)Cn1cnc2cc(Br)c(Cl)cc2c1=O (racemic) [Halofuginone] + Nc1nc2[nH]cc(CCc3ccc(C(=O)N[C@@H](CCC(=O)O)C(=O)O)cc3)c2c(=O)[nH]1 [Pemetrexed] (partner 0.2 µM)
Outline: as §1

[2] = compound: O=C(C[C@H]1NCCC[C@@H]1O)Cn1cnc2cc(Br)c(Cl)cc2c1=O (racemic) [Halofuginone] + CC(=O)c1c(C)c2cnc(Nc3ccc(N4CCNCC4)cn3)nc2n(C2CCCC2)c1=O [Palbociclib] (partner 0.5 µM)
Outline: as §1

Cell Line | relative viability (Cediranib + Dasatinib; first compound 0.04 µM) | relative viability (Cediranib + Dasatinib; first compound 0.4 µM) | relative viability (Cediranib + Dasatinib; first compound 1.265 µM) | relative viability (Cediranib + Dasatinib; first compound 4 µM) | relative viability (Cediranib + Bortezomib; first compound 0.04 µM) | relative viability (Cediranib + Bortezomib; first compound 0.4 µM) | relative viability (Cediranib + Bortezomib; first compound 1.265 µM) | relative viability (Cediranib + Bortezomib; first compound 4 µM) | relative viability ([1]; first compound 0.001 µM) | relative viability ([1]; first compound 0.003162 µM) | relative viability ([1]; first compound 0.01 µM) | relative viability ([1]; first compound 0.03162 µM) | relative viability ([1]; first compound 0.1 µM) | relative viability ([2]; first compound 0.001 µM) | relative viability ([2]; first compound 0.003162 µM) | relative viability ([2]; first compound 0.01 µM) | relative viability ([2]; first compound 0.03162 µM) | relative viability ([2]; first compound 0.1 µM) | relative viability (Cediranib + Bortezomib; first compound 0.1265 µM) | relative viability (Cediranib + Dasatinib; first compound 0.1265 µM)
NCI-H1623 | 0.618 | 0.523 | 0.463 | 0.536 |  |  |  |  |  |  |  |  |  |  |  |  |  |  |  | 
HCC-827 | 0.284 | 0.226 | 0.309 | 0.275 | 1.03 | 0.967 | 1.11 | 1.08 | 0.238 | 0.237 | 0.266 | 0.27 | 0.239 | 0.485 | 0.459 | 0.491 | 0.56 | 0.478 |  | 
NCI-H322M | 0.239 | 0.247 | 0.258 | 0.255 | 1.29 | 1.32 | 1.24 | 1.28 | 0.633 | 0.63 | 0.554 | 0.586 | 0.398 | 0.549 | 0.475 | 0.45 | 0.465 | 0.357 | 1.56 | 0.277
ChaGo-K-1 | 0.524 | 0.608 | 0.578 | 0.626 | 1.03 | 0.994 | 1.04 | 0.861 | 0.297 | 0.254 | 0.251 | 0.256 | 0.258 | 0.945 | 0.947 | 0.963 | 0.95 | 0.947 |  | 0.508
BEN | 0.331 | 0.362 | 0.229 | 0.332 | 0.872 | 0.861 | 0.559 | 0.724 | 0.871 | 0.618 | 0.788 | 0.647 | 0.551 | 0.487 | 0.471 | 0.441 | 0.473 | 0.385 | 0.432 | 
NCI-H2347 | 0.262 | 0.268 | 0.277 | 0.381 | 1.09 | 0.93 | 1.02 | 0.96 | 0.412 | 0.445 | 0.432 | 0.43 | 0.429 | 0.44 | 0.453 | 0.513 | 0.438 | 0.332 | 0.819 | 0.288
LOU-NH91 | 0.522 | 0.51 | 0.495 | 0.552 | 0.409 | 0.517 | 0.513 | 0.488 | 0.405 | 0.391 | 0.425 | 0.4 | 0.403 | 0.567 | 0.515 | 0.494 | 0.492 | 0.589 | 0.475 | 0.78
NCI-H2228 | 0.634 | 0.52 | 0.54 | 0.601 | 1.16 | 0.991 | 1.35 | 1.14 | 0.32 | 0.29 | 0.345 | 0.273 | 0.074 | 0.957 | 0.736 | 0.971 | 0.496 | 0.111 | 1.09 | 0.505
NCI-H2342 | 0.334 | 0.288 | 0.295 | 0.327 |  |  |  |  | 0.801 | 0.702 | 0.774 | 0.76 | 0.727 | 0.503 | 0.578 | 0.511 | 0.512 | 0.527 |  | 0.392
